Measured values taken from patent US10544143B2, “4-azaindole compounds” (BRISTOL-MYERS SQUIBB COMPANY, priority 2017, dated 2020).
Read-outs that look alike come from different tables or passages of the source. Blank lines part the entries; values can stand above or below the compound they belong to.

Assays:
human TLR7 = human TLR7 (Homo sapiens (Human), UniProt Q9NYK1); assay: TLR7 inhibition reporter assay (HEK-Blue SEAP); type: cell-based
TLR7 = TLR7 (Mus musculus (Mouse), UniProt P58681); assay: In vivo mouse TLR7 PD model (gardiquimod challenge, plasma IL-6 and IFN-alpha); conditions: C57BL/6 mice, plasma 90 min after gardiquimod i.p., vs vehicle
Procedure: In Vivo Mouse TLR7 PD Model:
Adult male C57BL/6 mice were used for the experiments. Mice (7 to 10 per group) were randomized into different treatment groups based on body weight. Mice from the respective treatment groups were administered orally with vehicle or test compound. Thirty min after the oral administration of vehicle or test compound, mice were challenged with intraperitoneal injection of gardiquimod for TLR7 PD model. Ninety minutes after gardiquimod injection, mice were bled under isoflurane anaesthesia and plasma IL-6 and IFN-alpha levels were estimated by using commercially available ELISA kit (BD Biosciences, PBL Life Sciences). At the end of experiment, mean cytokine data was plotted and one way ANOVA with Dunnett's test was performed to calculate the significance of test compound treated group vs. vehicle control group. Percent inhibition of cytokine induction was calculated for test compound treated group vs vehicle control group.

human TLR8 = human TLR8 (Homo sapiens (Human), UniProt Q9NR97); assay: TLR8 inhibition reporter assay (HEK-Blue SEAP); conditions: read-out: TLR8 IC50;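 note: SEAP driven by IFN-β minimal promoter carrying NF-κB and AP-1 sites, compounds dosed 0.05 nM to 50 µM for 22 h, inhibition scaled between agonist-plus-DMSO and reference-inhibitor wells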
human TLR9 = human TLR9 (Homo sapiens (Human), UniProt Q9NR96); assay: TLR9 inhibition reporter assay (HEK-Blue SEAP); conditions: read-out: TLR9 IC50;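 note: SEAP driven by an IFN-β minimal promoter with NF-κB and AP-1 sites, read after 22 h, compounds dosed 0.05 nM–50 µM, inhibition scaled between agonist plus DMSO and reference-inhibitor wells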
Procedure: HEK-Blue™-cells (Invivogen) overexpressing human TLR7, TLR8 or TLR9 receptors were used for screening inhibitors of these receptors using an inducible SEAP (secreted embryonic alkaline phosphatase) reporter gene under the control of the IFN-β minimal promoter fused to five NF-κB and AP-1-binding sites. Briefly, cells are seeded into Greiner 384 well plates (15000 cells per well for TLR7, 20,000 for TLR8 and 25,000 for TLR9) and then treated with test compounds in DMSO to yield a final dose response concentration range of 0.05 nM-50 μM. After a 30 minute compound pre-treatment at room temperature, the cells are then stimulated with a TLR7 ligand (gardiquimod at a final concentration of 7.5 μM), TLR8 ligand (R848 at a final concentration of 15.9 μM) or TLR9 ligand (ODN2006 at a final concentration of 5 nM) to activate NF-κB and AP-1 which induce the production of SEAP. After a 22 hour incubation at 37° C., 5% CO2, SEAP levels are determined with the addition of HEK-Blue™ Detection reagent (Invivogen), a cell culture medium that allows for detection of SEAP, according to manufacturer's specifications.

MRL/lpr mice = assay: MRL/lpr model of SLE; type: in vivo, mouse; conditions: vs vehicle; for IL-10, percent reduction in disease severity / IL-12p40, percent reduction in disease severity: plasma
Procedure: Male MRL/lpr mice of 12-14 weeks age were screened and randomized based on the titres of anti-dsDNA antibodies and urinary NGAL (Neutrophil Gelatinase Associated Lipocalin). Mice were treated orally, once daily for 8 weeks with vehicle or test compound. The effect of test compound on disease severity was assessed by measuring end points including proteinuria, urinary-NGAL, urinary TIMP1, blood urea nitrogen (BUN), anti-dsDNA Ab, anti-smRNP Ab titer, and plasma levels of IL10 and IL12p40. At the end of experiment, all mice were euthanized by CO2 asphyxiation and kidney samples were subjected for histology. To calculate the significance of test compound treated group vs. vehicle control group, one way ANOVA with Dunnett's test was performed. Percent reduction in disease severity was calculated for each parameter, for test compound treated group vs vehicle control group.

[1] = HEK-Blue cells overexpressing human TLR7, gardiquimod 7.5 μM stimulation, SEAP reporter
[2] = HEK-Blue cells overexpressing human TLR8, R848 15.9 μM stimulation, SEAP reporter
[3] = HEK-Blue cells overexpressing human TLR9, ODN2006 5 nM stimulation, SEAP reporter
[4] = 0.1 mg/kg oral once daily 8 weeks
[5] = 0.3 mg/kg oral once daily 8 weeks
[6] = 1 mg/kg oral once daily 8 weeks
[7] = 3 mg/kg oral once daily 8 weeks
[8] = 10 mg/kg oral once daily 8 weeks
[9] = HEK-Blue human TLR7 cells, gardiquimod 7.5 μM
[10] = HEK-Blue human TLR8 cells, R848 15.9 μM
[11] = HEK-Blue human TLR9 cells, ODN2006 5 nM

Sequence of human TLR7 (Q9NYK1 27-1049): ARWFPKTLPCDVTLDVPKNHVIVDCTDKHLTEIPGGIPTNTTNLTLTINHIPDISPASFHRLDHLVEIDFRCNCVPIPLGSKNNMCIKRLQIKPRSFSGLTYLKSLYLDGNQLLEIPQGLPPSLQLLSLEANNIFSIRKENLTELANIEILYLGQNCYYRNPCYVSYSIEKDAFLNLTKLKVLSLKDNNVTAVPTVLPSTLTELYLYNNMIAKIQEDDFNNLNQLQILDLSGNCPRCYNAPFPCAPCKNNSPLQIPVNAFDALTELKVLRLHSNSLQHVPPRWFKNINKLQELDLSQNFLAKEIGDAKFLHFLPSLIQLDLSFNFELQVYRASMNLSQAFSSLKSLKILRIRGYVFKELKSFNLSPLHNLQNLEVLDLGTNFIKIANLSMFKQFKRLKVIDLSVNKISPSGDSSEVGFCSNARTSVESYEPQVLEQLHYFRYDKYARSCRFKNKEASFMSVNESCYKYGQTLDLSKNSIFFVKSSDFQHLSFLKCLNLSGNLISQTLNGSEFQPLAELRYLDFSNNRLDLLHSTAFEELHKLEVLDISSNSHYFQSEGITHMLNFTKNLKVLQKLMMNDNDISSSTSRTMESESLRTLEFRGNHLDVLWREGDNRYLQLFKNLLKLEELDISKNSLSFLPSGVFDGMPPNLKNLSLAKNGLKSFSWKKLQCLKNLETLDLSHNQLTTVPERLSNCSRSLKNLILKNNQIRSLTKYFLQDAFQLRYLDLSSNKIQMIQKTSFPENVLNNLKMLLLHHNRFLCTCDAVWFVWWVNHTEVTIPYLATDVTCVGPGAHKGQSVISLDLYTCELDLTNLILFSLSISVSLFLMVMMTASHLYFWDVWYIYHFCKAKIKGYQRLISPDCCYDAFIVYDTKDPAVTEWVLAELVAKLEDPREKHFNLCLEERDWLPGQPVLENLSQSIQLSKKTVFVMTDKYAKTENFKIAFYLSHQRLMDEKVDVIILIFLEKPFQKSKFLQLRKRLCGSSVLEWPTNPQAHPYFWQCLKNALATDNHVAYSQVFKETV
Sequence of human TLR9 (Q9NR96 26-1032): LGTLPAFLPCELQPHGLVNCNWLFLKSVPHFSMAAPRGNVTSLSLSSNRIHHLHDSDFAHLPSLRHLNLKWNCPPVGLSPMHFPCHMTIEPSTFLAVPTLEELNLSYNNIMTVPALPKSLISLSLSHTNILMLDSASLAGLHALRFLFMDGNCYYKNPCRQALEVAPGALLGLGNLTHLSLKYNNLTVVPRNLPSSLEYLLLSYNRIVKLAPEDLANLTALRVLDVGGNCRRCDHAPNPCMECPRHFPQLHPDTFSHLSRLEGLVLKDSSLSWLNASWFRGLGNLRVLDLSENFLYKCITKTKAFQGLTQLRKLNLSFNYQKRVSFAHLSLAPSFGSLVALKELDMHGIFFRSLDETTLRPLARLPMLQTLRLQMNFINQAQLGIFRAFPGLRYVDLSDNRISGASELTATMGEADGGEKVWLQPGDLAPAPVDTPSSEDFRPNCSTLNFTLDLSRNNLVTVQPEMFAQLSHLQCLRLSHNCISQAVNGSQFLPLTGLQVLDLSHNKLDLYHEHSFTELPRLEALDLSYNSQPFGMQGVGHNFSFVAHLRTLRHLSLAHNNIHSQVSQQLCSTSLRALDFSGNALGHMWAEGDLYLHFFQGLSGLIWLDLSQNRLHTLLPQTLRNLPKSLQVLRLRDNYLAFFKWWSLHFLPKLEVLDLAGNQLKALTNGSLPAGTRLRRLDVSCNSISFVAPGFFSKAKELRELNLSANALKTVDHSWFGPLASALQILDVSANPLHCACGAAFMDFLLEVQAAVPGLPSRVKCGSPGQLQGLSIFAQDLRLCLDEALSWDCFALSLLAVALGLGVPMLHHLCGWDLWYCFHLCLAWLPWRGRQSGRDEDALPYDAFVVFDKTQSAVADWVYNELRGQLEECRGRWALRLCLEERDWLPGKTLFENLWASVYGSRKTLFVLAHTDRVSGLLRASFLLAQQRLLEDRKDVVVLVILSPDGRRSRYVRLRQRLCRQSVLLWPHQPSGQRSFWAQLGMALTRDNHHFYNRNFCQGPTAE
Sequence of human TLR8 (Q9NR97 27-1041): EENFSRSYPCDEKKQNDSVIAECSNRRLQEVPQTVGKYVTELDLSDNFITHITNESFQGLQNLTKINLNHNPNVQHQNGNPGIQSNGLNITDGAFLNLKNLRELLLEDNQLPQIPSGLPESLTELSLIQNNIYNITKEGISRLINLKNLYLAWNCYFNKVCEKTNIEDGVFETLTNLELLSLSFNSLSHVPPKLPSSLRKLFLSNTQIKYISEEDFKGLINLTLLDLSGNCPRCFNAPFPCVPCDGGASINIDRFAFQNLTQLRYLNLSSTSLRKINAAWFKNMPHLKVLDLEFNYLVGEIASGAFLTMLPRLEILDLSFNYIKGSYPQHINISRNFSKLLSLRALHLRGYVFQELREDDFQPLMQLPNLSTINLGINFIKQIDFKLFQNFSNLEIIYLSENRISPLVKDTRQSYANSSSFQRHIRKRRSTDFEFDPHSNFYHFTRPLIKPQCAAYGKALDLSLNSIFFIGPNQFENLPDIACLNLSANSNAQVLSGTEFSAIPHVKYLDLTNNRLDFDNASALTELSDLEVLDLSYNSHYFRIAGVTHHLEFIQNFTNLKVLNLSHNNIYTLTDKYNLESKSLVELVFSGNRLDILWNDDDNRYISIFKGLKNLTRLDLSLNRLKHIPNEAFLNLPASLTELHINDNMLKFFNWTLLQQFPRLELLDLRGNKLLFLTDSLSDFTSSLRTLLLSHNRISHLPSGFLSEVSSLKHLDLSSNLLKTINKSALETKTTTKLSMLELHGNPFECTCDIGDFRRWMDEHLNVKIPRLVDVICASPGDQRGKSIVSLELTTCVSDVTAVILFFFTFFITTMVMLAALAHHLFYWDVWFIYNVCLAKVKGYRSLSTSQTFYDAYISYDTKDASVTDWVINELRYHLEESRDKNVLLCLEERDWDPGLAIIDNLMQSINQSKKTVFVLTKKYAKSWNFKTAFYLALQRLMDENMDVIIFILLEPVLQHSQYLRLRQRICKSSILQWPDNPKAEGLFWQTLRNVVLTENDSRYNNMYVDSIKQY
Sequence of TLR7 (P58681 27-1050): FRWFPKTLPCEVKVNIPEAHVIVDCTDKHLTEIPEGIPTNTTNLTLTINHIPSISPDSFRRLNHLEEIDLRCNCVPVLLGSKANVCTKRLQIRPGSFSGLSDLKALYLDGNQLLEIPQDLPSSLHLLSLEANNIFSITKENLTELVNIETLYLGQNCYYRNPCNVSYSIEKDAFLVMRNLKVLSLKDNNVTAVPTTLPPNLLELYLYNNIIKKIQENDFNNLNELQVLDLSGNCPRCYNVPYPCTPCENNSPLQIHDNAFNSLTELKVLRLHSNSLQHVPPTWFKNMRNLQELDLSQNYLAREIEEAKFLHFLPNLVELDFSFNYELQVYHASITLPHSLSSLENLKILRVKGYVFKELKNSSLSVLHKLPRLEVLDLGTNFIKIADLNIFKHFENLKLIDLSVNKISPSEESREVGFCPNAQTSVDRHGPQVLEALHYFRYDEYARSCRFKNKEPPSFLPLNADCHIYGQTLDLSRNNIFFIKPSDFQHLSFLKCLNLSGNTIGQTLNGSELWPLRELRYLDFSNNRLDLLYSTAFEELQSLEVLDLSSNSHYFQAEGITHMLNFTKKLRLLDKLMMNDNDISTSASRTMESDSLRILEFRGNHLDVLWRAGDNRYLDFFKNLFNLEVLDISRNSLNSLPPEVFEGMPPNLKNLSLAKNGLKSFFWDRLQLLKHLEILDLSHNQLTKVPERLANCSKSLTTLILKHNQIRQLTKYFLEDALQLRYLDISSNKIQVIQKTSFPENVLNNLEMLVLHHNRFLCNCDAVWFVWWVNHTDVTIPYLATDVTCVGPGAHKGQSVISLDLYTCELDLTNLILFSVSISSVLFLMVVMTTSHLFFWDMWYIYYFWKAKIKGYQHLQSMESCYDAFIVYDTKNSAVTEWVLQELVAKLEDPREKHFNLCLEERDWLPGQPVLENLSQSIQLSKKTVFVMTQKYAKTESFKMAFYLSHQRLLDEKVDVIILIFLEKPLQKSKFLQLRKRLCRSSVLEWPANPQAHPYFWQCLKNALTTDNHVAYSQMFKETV

SMILES: Cc1c(-c2[nH]c3ccc(N4CCN(C(=O)CN(C)C)CC4)nc3c2C(C)C)cn2ncnc2c1C [Example 3, 1-(4-(2-(7,8-dimethyl-[1,2,4]triazolo[1,5-a]pyridin-6-yl)-3-isopropyl-1H-pyrrolo[3,2-b]pyridin-5-yl)piperazin-1-yl)-2-(dimethylamino)ethan-1-one]
IC50 (human TLR7; [1]): 0.93 nM
% inhibition of IFN-alpha (TLR7; 0.005 mg/kg oral): 29%
% inhibition of IL6 (TLR7; 0.005 mg/kg oral): 0%
% inhibition of IFN-alpha (TLR7; 0.01 mg/kg oral): 37%
% inhibition of IL6 (TLR7; 0.01 mg/kg oral): 24%
% inhibition of IFN-alpha (TLR7; 0.05 mg/kg oral): 94%
% inhibition of IL6 (TLR7; 0.05 mg/kg oral): 75%
% inhibition of IFN-alpha (TLR7; 0.25 mg/kg oral): 99%
% inhibition of IL6 (TLR7; 0.25 mg/kg oral): 90%
% inhibition of IFN-alpha (TLR7; 0.5 mg/kg oral): 100%
% inhibition of IL6 (TLR7; 0.5 mg/kg oral): 91%
IC50 (human TLR8; [2]): 1.1 nM
IC50 (human TLR9; [3]): 8540 nM

SMILES: Cc1c(-c2[nH]c3ccc(C4CCC(NCC5(S(C)(=O)=O)CC5)CC4)nc3c2C(C)C)cn2ncnc2c1C (stereo not shown) [Example 4, 4-(2-(7,8-dimethyl-[1,2,4]triazolo[1,5-a]pyridin-6-yl)-3-isopropyl-1H-pyrrolo[3,2-b]pyridin-5-yl)-N-((1-(methylsulfonyl)cyclopropyl)methyl)cyclohexan-1-amine]
IC50 (human TLR7; [1]): 0.6 nM
% inhibition of IFN-alpha (TLR7; 0.0015 mg/kg oral): 0%
% inhibition of IL6 (TLR7; 0.0015 mg/kg oral): 0%
% inhibition of IFN-alpha (TLR7; 0.003 mg/kg oral): 33%
% inhibition of IL6 (TLR7; 0.003 mg/kg oral): 23%
% inhibition of IFN-alpha (TLR7; 0.015 mg/kg oral): 74%
% inhibition of IL6 (TLR7; 0.015 mg/kg oral): 75%
% inhibition of IFN-alpha (TLR7; 0.075 mg/kg oral): 93%
% inhibition of IL6 (TLR7; 0.075 mg/kg oral): 76%
% inhibition of IFN-alpha (TLR7; 0.15 mg/kg oral): 99%
% inhibition of IL6 (TLR7; 0.15 mg/kg oral): 95%
IC50 (human TLR8; [2]): 0.71 nM
IC50 (human TLR9; [3]): 1070 nM

SMILES: Cc1c(-c2[nH]c3ccc(C4CCC(N5CC6(C5)CS(=O)(=O)C6)CC4)nc3c2C(C)C)cn2ncnc2c1C (stereo not shown) [Example 438, 6-((1r,4r)-(4-(2-(7,8-dimethyl-[1,2,4]triazolo[1,5-a]pyridin-6-yl)-3-isopropyl-1H-pyrrolo[3,2-b]pyridin-5-yl)cyclohexyl)-2-thia-6-azaspiro[3.3]heptane 2,2-dioxide]
% inhibition of IFN-alpha (TLR7; 0.003 mg/kg oral): 36%
% inhibition of IL6 (TLR7; 0.003 mg/kg oral): 25%
% inhibition of IFN-alpha (TLR7; 0.006 mg/kg oral): 57%
% inhibition of IL6 (TLR7; 0.006 mg/kg oral): 41%
% inhibition of IFN-alpha (TLR7; 0.03 mg/kg oral): 67%
% inhibition of IL6 (TLR7; 0.03 mg/kg oral): 56%
% inhibition of IFN-alpha (TLR7; 0.15 mg/kg oral): 96%
% inhibition of IL6 (TLR7; 0.15 mg/kg oral): 78%
% inhibition of IFN-alpha (TLR7; 0.3 mg/kg oral): 98%
% inhibition of IL6 (TLR7; 0.3 mg/kg oral): 82%
IL-10, percent reduction in disease severity (MRL/lpr mice; [4]): 0%
IL-12p40, percent reduction in disease severity (MRL/lpr mice; [4]): 16%
Anti-SmRNP Ab titer, percent reduction in disease severity (MRL/lpr mice; [4]): 23%
Anti-dsDNA Ab titer, percent reduction in disease severity (MRL/lpr mice; [4]): 0%
Proteinuria, percent reduction in disease severity (MRL/lpr mice; [4]): 31%
Urinary NGAL, percent reduction in disease severity (MRL/lpr mice; [4]): 34%
Urinary TIMP1, percent reduction in disease severity (MRL/lpr mice; [4]): 0%
IL-10, percent reduction in disease severity (MRL/lpr mice; [5]): 18%
IL-12p40, percent reduction in disease severity (MRL/lpr mice; [5]): 33%
Anti-SmRNP Ab titer, percent reduction in disease severity (MRL/lpr mice; [5]): 44%
Anti-dsDNA Ab titer, percent reduction in disease severity (MRL/lpr mice; [5]): 28%
Proteinuria, percent reduction in disease severity (MRL/lpr mice; [5]): 80%
Urinary NGAL, percent reduction in disease severity (MRL/lpr mice; [5]): 58%
Urinary TIMP1, percent reduction in disease severity (MRL/lpr mice; [5]): 42%
IL-10, percent reduction in disease severity (MRL/lpr mice; [6]): 19%
IL-12p40, percent reduction in disease severity (MRL/lpr mice; [6]): 26%
Anti-SmRNP Ab titer, percent reduction in disease severity (MRL/lpr mice; [6]): 49%
Anti-dsDNA Ab titer, percent reduction in disease severity (MRL/lpr mice; [6]): 39%
Proteinuria, percent reduction in disease severity (MRL/lpr mice; [6]): 73%
Urinary NGAL, percent reduction in disease severity (MRL/lpr mice; [6]): 63%
Urinary TIMP1, percent reduction in disease severity (MRL/lpr mice; [6]): 54%
IL-10, percent reduction in disease severity (MRL/lpr mice; [7]): 21%
IL-12p40, percent reduction in disease severity (MRL/lpr mice; [7]): 28%
Anti-SmRNP Ab titer, percent reduction in disease severity (MRL/lpr mice; [7]): 43%
Anti-dsDNA Ab titer, percent reduction in disease severity (MRL/lpr mice; [7]): 44%
Proteinuria, percent reduction in disease severity (MRL/lpr mice; [7]): 82%
Urinary NGAL, percent reduction in disease severity (MRL/lpr mice; [7]): 67%
Urinary TIMP1, percent reduction in disease severity (MRL/lpr mice; [7]): 56%
IL-10, percent reduction in disease severity (MRL/lpr mice; [8]): 22%
IL-12p40, percent reduction in disease severity (MRL/lpr mice; [8]): 41%
Anti-SmRNP Ab titer, percent reduction in disease severity (MRL/lpr mice; [8]): 51%
Anti-dsDNA Ab titer, percent reduction in disease severity (MRL/lpr mice; [8]): 37%
Proteinuria, percent reduction in disease severity (MRL/lpr mice; [8]): 84%
Urinary NGAL, percent reduction in disease severity (MRL/lpr mice; [8]): 67%
Urinary TIMP1, percent reduction in disease severity (MRL/lpr mice; [8]): 79%
IC50 (human TLR8; HEK-Blue cells overexpressing human TLR8, SEAP reporter, R848 15.9 μM): 0.39 nM
IC50 (human TLR9; HEK-Blue cells overexpressing human TLR9, SEAP reporter, ODN2006 5 nM): 1460 nM

SMILES: Cc1c(-c2[nH]c3ccc(C4CCC(N5CCC6(CCOC6)C5)CC4)nc3c2C(C)C)cn2ncnc2c1C (stereo not shown) [Example 1066]
IC50 (human TLR7; [9]): 9 nM
IC50 (human TLR8; [10]): 11 nM
IC50 (human TLR9; [11]): 4290 nM

SMILES: COc1cc(-c2[nH]c3ccc(C4CCC(N5CCC(F)C5)CC4)nc3c2C(C)C)cn2ncnc12 (stereo not shown) [Example 1067]
IC50 (human TLR7; [9]): 1 nM
IC50 (human TLR8; [10]): 4.5 nM
IC50 (human TLR9; [11]): 5400 nM

SMILES: COc1cc(-c2[nH]c3ccc(C4CCC(N5CCC6(COC6)C5)CC4)nc3c2C(C)C)cn2ncnc12 (stereo not shown) [Example 1068]
IC50 (human TLR7; [9]): 0.88 nM
IC50 (human TLR8; [10]): 1.8 nM
IC50 (human TLR9; [11]): 2960 nM

SMILES: COc1cc(-c2[nH]c3ccc(C4CCC(N5CCOCC5)CC4)nc3c2C(C)C)cn2ncnc12 (stereo not shown) [Example 1071]
IC50 (human TLR7; [9]): 3.7 nM
IC50 (human TLR8; [10]): 25 nM
IC50 (human TLR9; [11]): 5950 nM

SMILES: COc1cc(-c2[nH]c3ccc(C4CCC(N5CCC(F)C5)CC4)nc3c2C(C)C)cn2ncnc12 (stereo not shown) [Example 1072]
IC50 (human TLR7; [9]): 2.9 nM
IC50 (human TLR8; [10]): 35 nM
IC50 (human TLR9; [11]): 5840 nM

Now from value to compound:

IC50 (human TLR7; [9]): 0.09 nM
IC50 (human TLR8; [10]): 0.17 nM
IC50 (human TLR9; [11]): 735 nM
SMILES: COc1cc(-c2[nH]c3ccc(C4CCC(N5CC6(CCOC6)C5)CC4)nc3c2C(C)C)cn2ncnc12 (stereo not shown) [Example 1069]

IC50 (human TLR7; [9]): 0.54 nM
IC50 (human TLR8; [10]): 0.72 nM
IC50 (human TLR9; [11]): 845 nM
SMILES: COc1cc(-c2[nH]c3ccc(C4CCC(N5CC6(CCOC6)C5)CC4)nc3c2C(C)C)cn2ncnc12 (stereo not shown) [Example 1070]

IC50 (human TLR7; [9]): 4.6 nM
IC50 (human TLR8; [10]): 28 nM
IC50 (human TLR9; [11]): 5830 nM
SMILES: COc1cc(-c2[nH]c3ccc(C4CCC(N5CCC6(COC6)C5)CC4)nc3c2C(C)C)cn2ncnc12 (stereo not shown) [Example 1073]

IC50 (human TLR7; [9]): 0.59 nM
IC50 (human TLR8; [10]): 1.9 nM
IC50 (human TLR9; [11]): 2130 nM
SMILES: COc1cc(-c2[nH]c3ccc(C4CCC(N5CC6(CCO6)C5)CC4)nc3c2C(C)C)cn2ncnc12 (stereo not shown) [Example 1074]

IC50 (human TLR7; [9]): 1.8 nM
IC50 (human TLR8; [10]): 11 nM
IC50 (human TLR9; [11]): 3350 nM
SMILES: COc1cc(-c2[nH]c3ccc(C4CCC(N5CC6(CCO6)C5)CC4)nc3c2C(C)C)cn2ncnc12 (stereo not shown) [Example 1075]

IC50 (human TLR7; [9]): 1.6 nM
IC50 (human TLR8; [10]): 1.8 nM
IC50 (human TLR9; [11]): 10600 nM
SMILES: Cc1c(-c2[nH]c3ccc(C4CCC(N5CC6(CCS6(=O)=O)C5)CC4)nc3c2C(C)C)cn2ncnc2c1C (stereo not shown) [Example 1076]

IC50 (human TLR7; [9]): 18 nM
IC50 (human TLR8; [10]): 38 nM
IC50 (human TLR9; [11]): 21800 nM
SMILES: Cc1c(-c2[nH]c3ccc(C4CCC(N5CC6(CCS6(=O)=O)C5)CC4)nc3c2C(C)C)cn2ncnc2c1C (stereo not shown) [Example 1077]

IC50 (human TLR7; [9]): 9.8 nM
IC50 (human TLR8; [10]): 216 nM
IC50 (human TLR9; [11]): > 50000 nM
SMILES: CNC1CCC(c2ccc3[nH]c(-c4cn(C)c5ncncc45)c(C(C)C)c3n2)CC1 (stereo not shown) [Example 1078]
